Laboratory results from the NIST ThermoML archive (doi:10.1021/acs.jced.7b00106).

Details: Hot wire method

FC(F)(F)/C=C/Cl [(E)-1-chloro-3,3,3-trifluoroprop-1-ene]
Details	thermal conductivity [W/m/K]
334.63 K, 179 kPa, Gas	0.01343
334.73 K, 328 kPa, Gas	0.01333
334.82 K, 112 kPa, Gas	0.01357
334.91 K, 97 kPa, Gas	0.01369
334.92 K, 253 kPa, Gas	0.0134
335.16 K, 178 kPa, Gas	0.01354
335.37 K, 112 kPa, Gas	0.01364
335.44 K, 97 kPa, Gas	0.01368
335.71 K, 176 kPa, Gas	0.01352
336 K, 98 kPa, Gas	0.01372
336.29 K, 176 kPa, Gas	0.01354
341.04 K, 7818 kPa, Liquid	0.07607
341.05 K, 502 kPa, Liquid	0.07132
341.06 K, 4000 kPa, Liquid	0.07359
341.11 K, 4008 kPa, Liquid	0.07339
341.11 K, 7812 kPa, Liquid	0.07571
341.12 K, 503 kPa, Liquid	0.07103
341.12 K, 34293 kPa, Liquid	0.08893
341.19 K, 34283 kPa, Liquid	0.08864
341.28 K, 19052 kPa, Liquid	0.08179
341.29 K, 26074 kPa, Liquid	0.08503
341.35 K, 19044 kPa, Liquid	0.08181
341.36 K, 12813 kPa, Liquid	0.07865
341.37 K, 26069 kPa, Liquid	0.08479
341.4 K, 7815 kPa, Liquid	0.07567
341.42 K, 3996 kPa, Liquid	0.0734
341.44 K, 510 kPa, Liquid	0.07095
341.44 K, 12800 kPa, Liquid	0.07849
341.47 K, 114 kPa, Gas	0.01391
341.48 K, 7806 kPa, Liquid	0.07567
341.5 K, 113 kPa, Gas	0.01391
341.5 K, 182 kPa, Gas	0.01442
341.5 K, 4008 kPa, Liquid	0.07332
341.53 K, 498 kPa, Liquid	0.07081
341.53 K, 53967 kPa, Liquid	0.09634
341.54 K, 65483 kPa, Liquid	0.1004
341.56 K, 117 kPa, Gas	0.01424
341.57 K, 34287 kPa, Liquid	0.08857
341.61 K, 65470 kPa, Liquid	0.1001
341.62 K, 53976 kPa, Liquid	0.09608
341.73 K, 464 kPa, Gas	0.01417
341.74 K, 113 kPa, Gas	0.01377
341.74 K, 256 kPa, Gas	0.01435
341.76 K, 26067 kPa, Liquid	0.08459
341.77 K, 19040 kPa, Liquid	0.08164
341.78 K, 181 kPa, Gas	0.01434
341.79 K, 114 kPa, Gas	0.0139
341.8 K, 177 kPa, Gas	0.01425
341.82 K, 7816 kPa, Liquid	0.0756
341.84 K, 117 kPa, Gas	0.01379
341.84 K, 465 kPa, Gas	0.01387
341.84 K, 4002 kPa, Liquid	0.07296
341.87 K, 26056 kPa, Liquid	0.08482
341.88 K, 116 kPa, Gas	0.01443
341.88 K, 490 kPa, Liquid	0.07091
341.88 K, 12799 kPa, Liquid	0.07857
341.88 K, 19048 kPa, Liquid	0.08151
341.91 K, 380 kPa, Gas	0.01419
341.92 K, 7805 kPa, Liquid	0.07534
341.96 K, 4010 kPa, Liquid	0.07316
341.98 K, 253 kPa, Gas	0.01421
341.99 K, 264 kPa, Gas	0.01423
341.99 K, 497 kPa, Liquid	0.07068
342 K, 113 kPa, Gas	0.01367
342.01 K, 464 kPa, Gas	0.0141
342.01 K, 65484 kPa, Liquid	0.1003
342.02 K, 53960 kPa, Liquid	0.09643
342.05 K, 176 kPa, Gas	0.01407
342.09 K, 117 kPa, Gas	0.01369
342.1 K, 180 kPa, Gas	0.01435
342.12 K, 465 kPa, Gas	0.01384
342.12 K, 34281 kPa, Liquid	0.08848
